# Test results taken from US20240148745A1, “COMPOUNDS FOR USE IN PROGRESSIVE MULTIPLE SCLEROSIS” (FONDAZIONE CENTRO SAN RAFFAELE, priority 2021, published 2024).
# Tests used:
# [1] = system: neonatal mouse oligodendrocyte progenitor cells; test: MTT metabolic activity / toxicity assay on neonatal mouse OPCs; assay type: cell-based; details: 1 and 10 microM, viability vs DMSO
# Experimental: Purified oligodendrocyte progenitor cells (OPC) obtained from neonatal mouse primary mixed glial cultures^25 were plated at the density of 6*10^4 cells/cm^2 into poly-L-lysine-coated 96 well plates. One day after plating, the cells were incubated with or without drugs (10, 1 and 0.1 μM) in DMSO (0.001% vehicle) for 48 hours. Compounds were screened for their ability to reduce [3-(4,5-dimethylthiazol-2-yl)-2,5-diphenyltetrazolium bromide (MTT)] using an automated microplate reader (Bio-rad, Hercules, CA, USA), as previously described.^25 MTT (0.25 mg/ml, Sigma-Aldrich, St Louis, MO) was added to the culture medium during the final 4 hours of incubation.
# Toxicity of the full list of drugs (274) at 10 μM have been evaluated on neonatal mouse oligodendrocyte progenitor cells via metabolic activity by MTT. First, drugs able to reduce OPC viability were selected, identifying 90 compounds with a cytotoxic effect defined by the Efficacy Ratio ER (absorbance of drug/absorbance of vehicle; PMID: 28387380) (ER≤0.4) which have not been further investigated—and 44 drugs inhibiting OPC metabolism at lower level (0.5<ER<0.8)—which were analyzed in the next experimental setting. As a result, 90 compounds were cytotoxic, 44 compounds with low toxicity were retested at 1 and 0.1 μM, 140 compounds (ER>0.8) were non-toxic and were re-tested.
# [2] = system: double fluorescence CG4 cell line (rat OPC line); test: Toxicity assay (cell density) on double fluorescence CG4 line; assay type: cell-based; details: 1 and 10 microM, viability vs basal condition
# Excerpt: Primary validation on CG4 line toxicity and differentiation. An innovative OPC line was developed for fast and reliable high content screening (HCS) of small compounds inducing oligodendrocyte differentiation. The line was genetically engineered by lentiviral transduction of rat CG4 cells (PubMed=1613821; DOI=10.1002/jnr.490310125; Louis J. C., Magal E., Muir D., Manthorpe M., Varon S.; CG-4, a new bipotential glial cell line from rat brain, is capable of differentiating in vitro into either mature oligodendrocytes or type-2 astrocytes. J. Neurosci. Res. 31:193-204(1992) to express mCherry fluorescent reporter (Evercooren, Anne & Avellana-Adalid, V. & Vitry, Sandrine & Nait-Oumesmar, Brahim & Lachapelle, Francois. (1997). Expansion of Oligodendrocyte Progenitors for Myelin Repair. 10.1007/978-1-4615-5949-8_21) in mature oligodendrocytes only, and EGFP at all stage of the oligodendroglial lineage: both the generation of mature oligodendrocytes (wmNl-mCherry) and the morphological changes associated with differentiation (CMV-EGFP) can be therefore monitored in a single assay. mCherry expression occurred only in O4+/GalC+ differentiated oligodendrocytes and GFP was ubiquitously expressed at all developmental stages. […]
# Compounds (272) were tested at 1 μM, using a double fluorescence CG4 cell line (rat OPC line), 9 cis-retinoic acid (1 μM) served as a positive control.
smiles,measurement,setting,value
O=C(N[C@@H]1CC[C@@H](c2cccc(F)c2F)CN(CC(F)(F)F)C1=O)N1CCC(n2c(=O)[nH]c3ncccc32)CC1 [Telcagepant],cytotoxicity on neonatal mouse OPCs,[1],not toxic on oligodendrocytes
same,cytotoxicity on CG4 line,[2],not toxic on oligodendrocytes
